For the experiment, the system named is INS-1E rat insulinoma, insulin secretion, 5 mM glucose. Put plainly: cell-based inhibition of insulin secretion, rat insulinoma INS-1E, 5 mM glucose, concentration response (AID 1117331).

Structures are written as SMILES. Activity calls are given as the source filed them. No rule for the calls is given here. Where only a bound is given, the exact number is not on record here.

With `Cc1ccc([N+](=O)[O-])[c]2c1[O][Hg]2`, the IC50 was > 33.3 µM (inactive).

What is called IC50 is the point on the concentration scale where inhibition reaches its midpoint.

These data come from PubChem BioAssay AID1117331.
